Laboratory results: ChEMBL document CHEMBL1134037, “Novel inhibitors of Leishmanial dihydrofolate reductase” (Bioorg Med Chem Lett, 2001)

Key:
Leishmania donovani = experiment: In vitro inhibition of compound against Leishmania donovani was determined; type: functional, organism-based
[1] = molecular target: Bifunctional dihydrofolate reductase-thymidylate synthase (Leishmania major) (UniProt P07382); experiment: Percent inhibition of compound against recombinant Leishmanial major dihydrofolate reductase at a concentration of 100 uM
Bifunctional dihydrofolate reductase-thymidylate synthase (Leishmania major), sequence (P07382 whole entry, looked up): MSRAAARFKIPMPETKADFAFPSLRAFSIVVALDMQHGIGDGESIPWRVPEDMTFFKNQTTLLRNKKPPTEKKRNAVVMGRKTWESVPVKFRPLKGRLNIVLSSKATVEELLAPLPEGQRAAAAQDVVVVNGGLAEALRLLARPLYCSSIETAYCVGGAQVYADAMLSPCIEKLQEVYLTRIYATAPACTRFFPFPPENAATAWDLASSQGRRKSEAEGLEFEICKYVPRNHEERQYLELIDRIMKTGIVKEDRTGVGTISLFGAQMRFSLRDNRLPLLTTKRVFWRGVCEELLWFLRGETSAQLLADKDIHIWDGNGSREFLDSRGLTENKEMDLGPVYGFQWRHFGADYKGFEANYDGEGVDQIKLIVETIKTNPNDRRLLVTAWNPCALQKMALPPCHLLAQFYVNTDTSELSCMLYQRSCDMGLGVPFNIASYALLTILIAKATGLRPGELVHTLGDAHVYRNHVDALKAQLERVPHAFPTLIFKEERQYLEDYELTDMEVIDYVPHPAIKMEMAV

[2] = molecular target: T1, Dihydrofolate reductase (Homo sapiens) (UniProt P00374); experiment: Percent inhibition of compound against recombinant human dihydrofolate reductase at a concentration of 100 uM
T1 sequence (whole entry): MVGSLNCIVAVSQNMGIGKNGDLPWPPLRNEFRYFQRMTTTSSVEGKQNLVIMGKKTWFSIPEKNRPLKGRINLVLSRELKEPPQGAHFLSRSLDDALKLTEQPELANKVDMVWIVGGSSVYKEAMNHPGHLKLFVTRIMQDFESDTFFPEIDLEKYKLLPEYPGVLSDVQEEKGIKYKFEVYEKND

Trypanosoma brucei = experiment: In vitro inhibition of compound against Trypanosoma brucei was determined; type: functional, organism-based
[3] = (§1) Cytotoxicity of compound was determined against rat L-6 cells; type: functional, cell-based; details: L6
Trypanosoma cruzi = experiment: In vitro inhibition of compound against Trypanosoma cruzi was determined; type: functional, organism-based
[4] = as §1; type: functional
[5] = molecular target: T1, Dihydrofolate reductase (Homo sapiens); experiment: Percent inhibition of compound against recombinant human dihydrofolate reductase at a concentration of 15 uM
[6] = molecular target: T1, Dihydrofolate reductase (Homo sapiens); experiment: Percent inhibition of compound against recombinant human dihydrofolate reductase at a concentration of 50 uM

Row | SMILES | IC50 (Leishmania donovani) [µM] | inhibition [1] [%] | inhibition [2] [%] | IC50 (Trypanosoma brucei) [µM] | IC50 (Trypanosoma cruzi) [µM] | inhibition [5] [%] | inhibition [6] [%] | IC50 [3] [µM] | MIC [4] [µM]
1 | COC(=O)/C(C#N)=C/c1ccc(/C=C/c2ccccn2)cc1 | 56 | 32 |  | 16 | 30 | 21 |  |  | > 310
2 | O=c1[nH]c(=O)n([C@H]2C[C@H](O)[C@@H](CO)O2)c2nc(-c3ccccc3)c(-c3ccccc3)nc12 | 69 | 50 |  | 11 | 35 |  | 37 | 208 | 
3 | CCn1ncc2c1n/c(=N\c1ccccc1)n1ccc3ccccc3c21 | 54 | 28 | 10 | 35 | 60 |  |  | > 265 | 

Now from value to compound, other results behind:

Row | IC50 (Leishmania donovani) [µM] | inhibition [1] [%] | inhibition [2] [%] | IC50 (Trypanosoma brucei) [µM] | IC50 (Trypanosoma cruzi) [µM] | inhibition [5] [%] | inhibition [6] [%] | SMILES | IC50 [3] [µM] | MIC [4] [µM]
4 | 47 | 50 | 43 | 15 | 8.6 |  |  | CCOC(=O)/C(C#N)=C/c1ccc(/C=C/c2ccccn2)cc1 | > 296 | 
5 | < 21 | 24 | 16 | 108 | 53 |  |  | COC(=O)N[C@H](C(=O)OC)[C@H](O)[C@@H](C)c1c(C)nc2n(C)c3ncn(Cc4ccccc4)c3c(=O)n12 | 181 | 
